Data published in US12485191B2, “Radiopharmaceuticals and methods of use thereof” (BOARD OF REGENTS OF THE UNIVERSITY OF NEBRASKA, priority 2017, dated 2025).
Marks after values point to notes of the source that are not given here. Each block holds one molecule with its values, some of them ahead of it.

Key:
CatB = CatB (Homo sapiens, UniProt P07858); assay: CatB inhibition of GRPR-targeted agents; assay type: biochemical
Method: The Inhibition of Cathepsin B Activity by the Conjugates The phosphate buffer (0.1 M, pH=5.8) containing EDTA (1 mM), DTT (2.7 mM), and Brij®35 (0.03%) was prepared before the assay. […] The solution of cathepsin B (human Liver) in assay buffer (50 μL, 0.544 nM) was added to the mixture which was further incubated at 37° C. for 20 minutes. The fluorescence of the liberated aminomethylcoumarin at 460 nM using 355 nm excitation was measured and the IC50 of the cathepsin B inhibition versus the samples without the inhibitor was determined by nonlinear regression using GraphPad Prism 5.

GRPR = GRPR (Homo sapiens, UniProt P30550); assay: GRPR affinity of GRPR-targeted agents; assay type: binding
PC-3 tumor = details: mouse, in vivo
HT-29 cells [1] = assay: HT-29 cell efflux study; assay type: cell-based, human; details: at 24 hours
Method: The HT-29 Cell Efflux Studies
The ^177Lu radioconjugate was added to a sterilized 1.5 mL microcentrifuge tube containing HT-29 cells ˜1×10^6) suspended in 300 μL of cell culture medium, yielding a final radioactivity concentration of 100,000 cpm/100 μL, and was incubated for 2 hours at 37° C. After the removal of the culture medium, the cells were washed with fresh medium (5×500 μL) followed by the addition of 500 μL of fresh medium for the efflux assay. At 0, 1, 2, 4, 8, and 24 hour time interval, fresh medium (500 μL) was added to the tube to replace the old medium which was harvested for quantitative analysis of the effluxed radioactivity using a gamma counter. The cells were lysed with a 10% aqueous SDS solution at 24 hour to quantify the remaining internalized radioactivity. The effluxed fraction is expressed as a percentage of the total radioactivity added to the tube, which is the sum of the effluxed and internalized fractions obtained from the study.

HT-29 xenograft tumors [2] = assay: Tissue adduct formation of the radioconjugates (SDS-PAGE, centrifugal filtration); assay type: in vivo, mice; details: autoradiographic SDS-PAGE, 24 hours post-injection
Method: The radioconjugates (800 μCi/mouse) were intravenously injected to the tumor bearing mice. The mice were sacrificed and the tumor, liver, and kidney were excised at 24 and 72 hours post-injection time points. The tumor and organs were homogenized in RIPA buffer (50 mg/100 μL) containing Halt™ protease inhibitor (100×, 1 μL) on ice and centrifuged to remove the pellet. An aliquot (20 μL) of the supernatant of the sample at 24 hours was mixed with Novex Tris-Glycine SDS sample buffer (2×, 20 μL) and incubated for further 10 minutes. The mixtures (20 μL) were loaded onto a Novex 16% tris-glycine gel and analyzed by SDS-PAGE at 110 V for 90 minutes. The autoradiograph of the SDS-PAGE was performed according to the same method in section 3.8.1. On the other hand, the aliquots (100 μL) of supernatants of all the tumor samples at 24 hours and 72 hours were individually centrifuged with Pierce™ protein concentrators (MWCO=10 kDa) to separate the low molecular weight radioactivity. The radioactivity in each fraction was quantified using a gamma counter to calculate the percentage of the cysteine proteases trapped radioconjugate in the total counts.

[3] = Distribution coefficient (Log D7.4) of the conjugates; assay type: physicochemical; details: determined by radiometric analysis; 177Lu-labeled conjugate
Method: Distribution Coefficient (Log D7.4) of the Conjugates The distribution coefficient was determined for each ^177Lu-labeled conjugate. In a 1.5 mL centrifuge tube, 0.5 mL of 1-octanol was added to 0.5 mL of PBS (pH 7.4) containing the radiolabeled peptide (500,000 cpm). The solution was vigorously vortexed for 2 minutes at room temperature and subsequently centrifuged to yield two immiscible layers. The radioactivity of the aliquots (100 μL) taken from each layer were quantified by the gamma counter and the Log D7.4 for each conjugates was calculated.

HT-29 cells [4] = assay: Intracellular trapping of the radioconjugates in living HT-29 cells (GPC, SDS-PAGE); assay type: cell-based, human; details: live HT-29 cells, GPC and SDS-PAGE
Method: Intracellular Trapping of the Radioconjugates in Living HT-29 Cells
To the HT-29 cells (1×10^6/well) seeded in 6-well plates was added the radioconjugates (0.74 MBq, 20 μCi) in 1 mL of cell culture medium. The cells were incubated at 37° C. for 4 hours and the medium was removed by vacuum followed washing with PBS (2×2 mL). The cells (˜3×10^6) were trypsinized and combined in microcentrifuge. The RIPA buffer (100 μL) containing Halttmprotease inhibitor (100×, 1 μL) was added to the cell pellet and vigorously vortexed for 1 minute. The suspension was incubated on ice for 15 minutes and centrifuged to remove the pellet. The supernatant (80 μL) was equally divided into two portions. The first portion (40 μL) was directly analyzed by radioactive-GPC with a flow rate of 0.6 mL/minute (40% ACN in PBS containing 0.1% sodium azide). The second portion (40 μL) of the cell lysate was mixed with Novex Tris-Glycine SDS sample buffer (2×) (40 μL) and incubated for another 15 minutes. The mixture (30 μL) was loaded onto a Novex 16% tris-glycine gel and analyzed by SDS-PAGE at 110 V for 90 minutes. The autoradiograph of the SDS-PAGE was performed as described above.

HT-29 xenograft tumors [5] = assay: Biodistribution study in HT-29 xenograft mouse model; assay type: in vivo, mice; details: HT-29 xenograft, by 24 hours
Method: Female SCID mice (5 weeks of age) received subcutaneous injections of HT-29 cells (5×10^6) suspended in Matrigel® into the flanks. When the tumor size reached 80 mm^3 (two weeks after injection), the mice were randomized into three groups and intravenously injected with 10 μCi (0.37 MBq) of the purified ^177Lu labeled conjugates via tail vein. The mice were sacrificed and the tissues were excised at 4, 24, and 72 hours post-injection time points. The blood, tumor, and excised tissues were weighed. The radioactivity for each sample was measured using a gamma counter. The percentage injected dose per gram (% ID/g) and the radioactivity ratios between tumor and non-targeted tissues were calculated.

[6] = biological target: T1, cathepsin B (human Liver) (Homo sapiens, UniProt P07858); assay: Inhibition constant (Ki) of the compounds to cathepsin B; assay type: biochemical
T1 construct: from tissue; host or cells: human liver
Method: Determination of the Km and Vmax of Cathepsin B for Z-Arg-Arg-AMC
The solution of cathepsin B (human Liver) (50 μL, 2 nM) in assay buffer used above was mixed with 50 μL of solution of substrate Z-Arg-Arg-AMC in the assay buffer at different concentrations ([S]) (25 μM, 50 μM, 100 μM, 500 μM and 1 mM). The mixture was incubated at 37° C. and the fluorescence of the liberated aminomethylcoumarin at 460 nM using 355 nm excitation was measured at predetermined time points (0, 2, 4, 6, 8, and 10 minutes). The fluorescence intensity was plotted versus time and the reaction rates (v0) were calculated as the slope of the trend lines obtained by liner regression. Km and maximum reaction rate (Vmax-obs) was determined from the equation v0=Vmax[S]/(Km+[S]) and solved by nonlinear regression using GraphPad Prism 5. All measurements were in biological triplicate.
Determination of the Inhibition Constant (Ki) of the Compounds to Cathepsin B
The cathepsin B (human Liver) in assay buffer (25 μL) was mixed with the conjugate (25 μL) in 96-well plate. After the solution was mixed, the Z-Arg-Arg-AMC in assay buffer (50 μL) was added to the well, yielding a final cathepsin B concentration of 1 nM, conjugate concentration ([C]) of 15 nM or 5 μM, and substrate concentration ([S]) of 25 μM, 50 μM, 100 μM, 500 μM and 1 mM. The mixture was incubated at 37° C. and the fluorescence of the liberated aminomethylcoumarin at 460 nM using 355 nm excitation was measured at predetermined time points (0, 2, 4, 6, 8, and 10 minutes). The fluorescence intensity was plotted versus time with observed reaction rates (v0-obs) calculated as the slope of the trend lines obtained by liner regression. The observed rate constant (Kobs) and observed maximum reaction rate (Vmax-obs) was determined from the equation v0-obs=Vmax-obs [S]/(Kobs+[S]) and solved by nonlinear regression using GraphPad Prism 5. The Ki was calculated from the equation Kobs=Km (1+[C]/Ki). All measurements were in biological triplicate.

CatL = CatL (Homo sapiens, UniProt P07711); assay: CatL inhibition constant; assay type: biochemical
HT-29 xenograft tumors [7] = tested on: HT-29 xenograft tumors; design: species or system mice; details: mouse
Method: Evaluation of Cysteine Proteases Trapping of the Cy 5-Labeled Conjugates
The Cy 5-labeled conjugates (40 nmol) were intravenously injected to the tumor bearing mice. The mice were sacrificed at 24 post-injection time points, and the heart, lung, liver, spleen, pancreas, kidney, intestine, brain, and tumor were excised and imaged using an IVIS spectrum system. The tumor and organs were homogenized in RIPA buffer (50 mg/100 μL) containing Halt™ protease inhibitor (100×, 1 μL) on ice and centrifuged to remove the pellet. An aliquot (18 μL) of the supernatant of the sample was added in NuPAGE® sample reducing reagent (10×, 2 μL) and denatured at 80° C. for 2 minutes. The sample was mixed with Novex Tris-Glycine S DS sample buffer (2×, 20 μL) and incubated for further 10 minutes. The mixtures (20 μL) were loaded onto a Novex 16% tris-glycine gel and analyzed by SDS-PAGE at 110 V for 90 minutes, followed by electro transferring onto PVDF membranes. The PVDF membranes were blocked by animal-free blocking buffer for 1 hour at room temperature and then were incubated with Cathepsin B (D1C7Y) XP® Rabbit mAb at 4° C. for overnight. Membranes was then incubated with Goat anti-Rabbit IgG (H+L) secondary antibody at room temperature for 1 hour and visualized using Typhoon FLA 9500.

Chain of GRPR (P30550 whole entry): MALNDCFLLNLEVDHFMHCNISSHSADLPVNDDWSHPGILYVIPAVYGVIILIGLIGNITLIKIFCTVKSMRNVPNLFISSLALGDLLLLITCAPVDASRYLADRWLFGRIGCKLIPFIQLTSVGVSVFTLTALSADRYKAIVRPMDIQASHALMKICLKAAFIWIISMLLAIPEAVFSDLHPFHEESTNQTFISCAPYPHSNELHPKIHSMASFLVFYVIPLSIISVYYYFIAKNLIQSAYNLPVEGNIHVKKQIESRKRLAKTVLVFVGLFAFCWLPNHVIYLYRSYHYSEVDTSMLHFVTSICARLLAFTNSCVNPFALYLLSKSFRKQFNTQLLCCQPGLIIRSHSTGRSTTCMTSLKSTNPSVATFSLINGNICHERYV
Chain of CatL (P07711 114-333): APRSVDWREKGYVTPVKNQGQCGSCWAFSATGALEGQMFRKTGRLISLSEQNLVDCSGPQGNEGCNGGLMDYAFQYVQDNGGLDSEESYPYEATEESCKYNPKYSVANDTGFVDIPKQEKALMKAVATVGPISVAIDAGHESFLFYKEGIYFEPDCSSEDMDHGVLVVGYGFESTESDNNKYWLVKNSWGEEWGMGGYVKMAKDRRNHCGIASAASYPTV

IC50 (CatB): > 200000 nM | IC50 (GRPR): 16.5 ± 3.3 nM
Structure (SMILES): CSCC[C@H](NC(=O)[C@H](CC(C)C)NC(=O)[C@H](Cc1c[nH]cn1)NC(=O)CNC(=O)[C@@H](NC(=O)[C@H](C)NC(=O)[C@H](Cc1c[nH]c2ccccc12)NC(=O)[C@H](CCC(N)=O)NC(=O)CCOCCOCCOCCOCCNC(=O)[C@H](Cc1cn(CCNC(=O)[C@H](CCCNC(=N)N)NC(=O)[C@H](CC(C)C)NC(=O)CCC(=O)O)nn1)NC(=O)CN1CCN(CC(=O)O)CCN(CC(=O)O)CCN(CC(=O)O)CC1)C(C)C)C(N)=O [^177Lu-C-AG, metal not drawn]
tumor retention (PC-3 tumor): 32%

Structure (SMILES): Cc1cc(O)cc(C)c1C[C@H](NC(=O)[C@@H]1CCCN1C(=O)[C@H](CCCNC(=N)N)NC(=O)[C@H](CCCNC(=N)N)N(C)C(=O)[C@@H]1CCCN1C(=O)[C@H](CCCCN)NC(=O)[C@@H](CO)NC(=O)[C@@H](CO)NC(=O)[C@@H](CO)NC(=O)[C@H](Cc1cn(CC(=O)N[C@H](CO)C(=O)N[C@H](CO)C(=O)N[C@H](CO)C(=O)NCC(=O)NCCCC[C@H](NC(=O)[C@H](Cc2ccccc2)NC(=O)OCc2ccccc2)C(=O)NCCc2ccccc2)nn1)NC(=O)CN1CCN(CC(=O)O)CCN(CC(=O)O)CCN(CC(=O)O)CC1)C(=O)N[C@H](C(=O)N[C@@H](CC(C)C)C(=O)O)C(C)(C)C [Compound 3b]
efflux (HT-29 cells [1]): 69% | in vivo adduct formation (in words) (HT-29 xenograft tumors [2]): no signs of adduct formation | logD7.4 [3]: −2.01 ± 0.06^b | intracellular adduct formation (in words) (HT-29 cells [4]): no adduct formation | decrease in tumor retention (HT-29 xenograft tumors [5]): 40% | CatB K1 [6]: ni | Ki and inhibition IC50 to CatB (in words) [6]: did not demonstrate any inhibition

CatB Ki ([6]; Table 3): ni^b | CatL Ki (CatL): ni^b
Structure (SMILES): Cc1cc(O)cc(C)c1C[C@H](NC(=O)[C@@H]1CCCN1C(=O)[C@H](CCCNC(=N)N)NC(=O)[C@H](CCCNC(=N)N)N(C)C(=O)[C@@H]1CCCN1C(=O)[C@H](CCCCN)NC(=O)[C@@H](CO)NC(=O)[C@@H](CO)NC(=O)[C@@H](CO)NC(=O)[C@H](Cc1cn(CCNC(=O)[C@H](CCCNC(=N)N)NC(=O)[C@H](CC(C)C)NC(=O)CCC(=O)O)nn1)NC(=O)CN1CCN(CC(=O)O)CCN(CC(=O)O)CCN(CC(=O)O)CC1)C(=O)N[C@H](C(=O)N[C@@H](CC(C)C)C(=O)O)C(C)(C)C [Ec]

Structure (SMILES): Cc1cc(C)c(C(=O)OCC(=O)[C@H](CCCCNC(=O)CNC(=O)[C@@H](CO)NC(=O)[C@@H](CO)NC(=O)[C@@H](CO)NC(=O)Cn2cc(C[C@H](NC(=O)CCCCC[N+]3=C(/C=C/C=C/C=C4/N(C)c5ccccc5C4(C)C)C(C)(C)c4ccccc43)C(=O)N[C@H](CO)C(=O)N[C@H](CO)C(=O)N[C@H](CO)C(=O)N[C@@H](CCCCN)C(=O)N3CCC[C@H]3C(=O)N(C)[C@@H](CCCNC(=N)N)C(=O)N[C@@H](CCCNC(=N)N)C(=O)N3CCC[C@H]3C(=O)N[C@@H](Cc3c(C)cc(O)cc3C)C(=O)N[C@H](C(=O)N[C@@H](CC(C)C)C(=O)O)C(C)(C)C)nn2)NC(=O)[C@H](Cc2ccccc2)NC(=O)OCc2ccccc2)c(C)c1 [Compound 4a]
tumor retention by ex vivo imaging (in words) (HT-29 xenograft tumors [7]): greater than its counterpart 4b
